According to ChEMBL document CHEMBL4725331, “An investigative study of antitumor properties of a novel thiazolo[4,5-d]pyrimidine small molecule revealing superior antitumor activity with CDK1 selectivity and potent pro-apoptotic properties” (Bioorg Med Chem, 2020):

What was measured:
HCT-116 [1] = experiment: Induction of apoptosis in human HCT116 cells assessed as increase in Bax gene expression by RT-PCR analysis relative to untreated control; format: functional
CAKI-1 = experiment: Antiproliferative activity against human CAKI-1 cells assessed as inhibition of cell growth measured after 48 hrs by SRB assay; format: functional
HCT-116 [2] = experiment: Induction of apoptosis in human HCT116 cells assessed as up regulation of caspase-9 expression by RT-PCR analysis relative to untreated control; format: functional
OVCAR-5 = experiment: Antiproliferative activity against human OVCAR-5 cells assessed as inhibition of cell growth measured after 48 hrs by SRB assay; format: functional
CCRF-CEM = experiment: Antiproliferative activity against human CCRF-CEM cells assessed as inhibition of cell growth measured after 48 hrs by SRB assay; format: functional
NCI-H460 [3] = experiment: Antiproliferative activity against human NCI-H460 cells assessed as inhibition of cell growth measured after 48 hrs by SRB assay; format: functional
MDA-MB-468 = experiment: Antiproliferative activity against human MDA-MB-468 cells assessed as inhibition of cell growth measured after 48 hrs by SRB assay; format: functional
HCC 2998 = experiment: Antiproliferative activity against human HCC 2998 cells assessed as inhibition of cell growth measured after 48 hrs by SRB assay; format: functional
SF-539 = experiment: Antiproliferative activity against human SF-539 cells assessed as inhibition of cell growth at 10 uM measured after 48 hrs by SRB assay relative to control; format: functional
HOP-62 = experiment: Antiproliferative activity against human HOP-62 cells assessed as inhibition of cell growth measured after 48 hrs by SRB assay; format: functional
K562 = experiment: Antiproliferative activity against human K562 cells assessed as inhibition of cell growth at 10 uM measured after 48 hrs by SRB assay relative to control; format: functional
MCF7 [4] = experiment: Antiproliferative activity against human MCF7 cells assessed as inhibition of cell growth at 10 uM measured after 48 hrs by SRB assay relative to control; format: functional
NCI-H23 = experiment: Antiproliferative activity against human NCI-H23 cells assessed as inhibition of cell growth at 10 uM measured after 48 hrs by SRB assay relative to control; format: functional
ACHN [5] = experiment: Antiproliferative activity against human ACHN cells assessed as inhibition of cell growth measured after 48 hrs by SRB assay; format: functional
TK-10 = experiment: Antiproliferative activity against human TK-10 cells assessed as inhibition of cell growth at 10 uM measured after 48 hrs by SRB assay relative to control; format: functional
NCI-H460 [6] = experiment: Antiproliferative activity against human NCI-H460 cells assessed as inhibition of cell growth at 10 uM measured after 48 hrs by SRB assay relative to control; format: functional
SF-295 = experiment: Antiproliferative activity against human SF-295 cells assessed as inhibition of cell growth measured after 48 hrs by SRB assay; format: functional
WI-38 [7] = experiment: Cytotoxicity against human WI-38 cells assessed as reduction in cell viability after 48 hrs by MTT assay; format: cell-based; settings: WI-38, 48 h
SNB-19 [8] = experiment: Antiproliferative activity against human SNB-19 cells assessed as inhibition of cell growth measured after 48 hrs by SRB assay; format: functional
WI-38 [9] = experiment: Induction of apoptosis in human WI-38 cells assessed as necrotic cells at IC50 incubated for 48 hrs by annexin-V FITC and propidium iodide staining based flow cytometry analysis (reference value: 0.39 %); format: cell-based; settings: wi-38, 48 h
SK-MEL-5 = experiment: Antiproliferative activity against human SK-MEL-5 cells assessed as inhibition of cell growth at 10 uM measured after 48 hrs by SRB assay relative to control; format: functional
MCF7 [10] = experiment: Antiproliferative activity against human MCF7 cells assessed as inhibition of cell growth measured after 48 hrs by SRB assay; format: functional
ACHN [11] = experiment: Antiproliferative activity against human ACHN cells assessed as inhibition of cell growth at 10 uM measured after 48 hrs by SRB assay relative to control; format: functional
NCI-H226 = experiment: Antiproliferative activity against human NCI-H226 cells assessed as inhibition of cell growth measured after 48 hrs by SRB assay; format: functional
SF-268 = experiment: Antiproliferative activity against human SF-268 cells assessed as inhibition of cell growth at 10 uM measured after 48 hrs by SRB assay relative to control; format: functional
NCI-H522 = experiment: Antiproliferative activity against human NCI-H522 cells assessed as inhibition of cell growth at 10 uM measured after 48 hrs by SRB assay relative to control; format: functional
T47D = experiment: Antiproliferative activity against human T47D cells assessed as inhibition of cell growth at 10 uM measured after 48 hrs by SRB assay relative to control; format: functional
UACC-257 = experiment: Antiproliferative activity against human UACC-257 cells assessed as inhibition of cell growth measured after 48 hrs by SRB assay; format: functional
HCT-116 [12] = experiment: Antiproliferative activity against human HCT-116 cells assessed as inhibition of cell growth at 10 uM measured after 48 hrs by SRB assay relative to control; format: functional
A498 = experiment: Antiproliferative activity against human A498 cells assessed as inhibition of cell growth measured after 48 hrs by SRB assay; format: functional
SNB-19 [13] = experiment: Antiproliferative activity against human SNB-19 cells assessed as inhibition of cell growth at 10 uM measured after 48 hrs by SRB assay relative to control; format: functional
UACC-62 = experiment: Antiproliferative activity against human UACC-62 cells assessed as inhibition of cell growth measured after 48 hrs by SRB assay; format: functional
PC-3 = experiment: Antiproliferative activity against human PC-3 cells assessed as inhibition of cell growth at 10 uM measured after 48 hrs by SRB assay relative to control; format: functional
DU-145 = experiment: Antiproliferative activity against human DU-145 cells assessed as inhibition of cell growth measured after 48 hrs by SRB assay; format: functional
[14] = read-out: LC50 (the source's name)

Question: How did the “fold change (FC)” value (HCT-116 [1]) turn out when `COc1ccc(-n2c(=S)sc3c(Cl)nc(C)nc32)c(OC)c1` was run?
Answer: Its value is 9.9.

Question: And the GI50 (CAKI-1)?
Answer: Its GI50 is 6.17 µM.

Question: What about the TGI (CAKI-1) of the same compound?
Answer: Its TGI is 19.5 µM.

Question: And the CC50 (CAKI-1; [14])?
Answer: Its CC50 is 45.7 µM.

Question: What about the “fold change (FC)” value (HCT-116 [2]) of the same compound?
Answer: Its value is 15.9.

Question: What about the GI50 (OVCAR-5) of the same compound?
Answer: The GI50 was 6.17 µM.

Question: And the TGI (OVCAR-5)?
Answer: The TGI was 20.9 µM.

Question: What about the CC50 (OVCAR-5; [14]) of the same compound?
Answer: Its CC50 is 53.7 µM.

Question: What about the GI50 (CCRF-CEM) of the same compound?
Answer: The GI50 was 2.69 µM.

Question: And the TGI (CCRF-CEM)?
Answer: Its TGI is 7.41 µM.

Question: And the CC50 (CCRF-CEM; [14])?
Answer: The CC50 was > 100 µM.

Question: And the GI50 (NCI-H460 [3])?
Answer: The GI50 was 3.09 µM.

Question: And the TGI (NCI-H460 [3])?
Answer: Its TGI is 9.12 µM.

Question: And the CC50 (NCI-H460 [3]; [14])?
Answer: The CC50 was 49 µM.

Question: What about the GI50 (MDA-MB-468) of the same compound?
Answer: The GI50 was 2 µM.

Question: What about the TGI (MDA-MB-468) of the same compound?
Answer: Its TGI is 6.61 µM.

Question: And the CC50 (MDA-MB-468; [14])?
Answer: The CC50 was 93.3 µM.

Question: What about the GI50 (HCC 2998) of the same compound?
Answer: Its GI50 is 16.2 µM.

Question: What about the TGI (HCC 2998) of the same compound?
Answer: The TGI was 30.9 µM.

Question: And the CC50 (HCC 2998; [14])?
Answer: Its CC50 is 58.9 µM.

Question: And the inhibition at 10 µM (SF-539)?
Answer: The inhibition at 10 µM was > 50%.

Question: What about the GI50 (HOP-62) of the same compound?
Answer: Its GI50 is 2.57 µM.

Question: What about the TGI (HOP-62) of the same compound?
Answer: The TGI was 7.76 µM.

Question: And the CC50 (HOP-62; [14])?
Answer: The CC50 was 26.9 µM.

Question: What about the inhibition at 10 µM (K562) of the same compound?
Answer: The inhibition at 10 µM was > 50%.

Question: What about the inhibition at 10 µM (MCF7 [4]) of the same compound?
Answer: Its inhibition at 10 µM is > 50%.

Question: And the inhibition at 10 µM (NCI-H23)?
Answer: Its inhibition at 10 µM is > 50%.

Question: And the GI50 (ACHN [5])?
Answer: Its GI50 is 2.09 µM.

Question: What about the TGI (ACHN [5]) of the same compound?
Answer: Its TGI is 3.98 µM.

Question: What about the CC50 (ACHN [5]; [14]) of the same compound?
Answer: Its CC50 is 7.59 µM.

Question: What about the inhibition at 10 µM (TK-10) of the same compound?
Answer: The inhibition at 10 µM was > 50%.

Question: What about the inhibition at 10 µM (NCI-H460 [6]) of the same compound?
Answer: Its inhibition at 10 µM is > 50%.

Question: And the GI50 (SF-295)?
Answer: The GI50 was 7.08 µM.

Question: What about the TGI (SF-295) of the same compound?
Answer: The TGI was 19.9 µM.

Question: And the CC50 (SF-295; [14])?
Answer: Its CC50 is 46.8 µM.

Question: What about the IC50 (WI-38 [7]) of the same compound?
Answer: The IC50 was 21.7 µM.

Question: And the GI50 (SNB-19 [8])?
Answer: The GI50 was 2.4 µM.

Question: What about the TGI (SNB-19 [8]) of the same compound?
Answer: Its TGI is 5.37 µM.

Question: And the CC50 (SNB-19 [8]; [14])?
Answer: Its CC50 is 17 µM.

Question: And the Activity (WI-38 [9])?
Answer: Its Activity is 1.41%.

Question: And the inhibition at 10 µM (SK-MEL-5)?
Answer: Its inhibition at 10 µM is > 50%.

Question: And the GI50 (MCF7 [10])?
Answer: The GI50 was 3.63 µM.

Question: What about the TGI (MCF7 [10]) of the same compound?
Answer: The TGI was 15.5 µM.

Question: And the CC50 (MCF7 [10]; [14])?
Answer: The CC50 was 87.1 µM.

Question: And the inhibition at 10 µM (ACHN [11])?
Answer: Its inhibition at 10 µM is > 50%.

Question: And the GI50 (NCI-H226)?
Answer: Its GI50 is 3.24 µM.

Question: And the TGI (NCI-H226)?
Answer: Its TGI is 12 µM.

Question: What about the CC50 (NCI-H226; [14]) of the same compound?
Answer: Its CC50 is 44.7 µM.

Question: And the inhibition at 10 µM (SF-268)?
Answer: Its inhibition at 10 µM is > 50%.

Question: What about the inhibition at 10 µM (NCI-H522) of the same compound?
Answer: The inhibition at 10 µM was > 50%.

Question: And the inhibition at 10 µM (T47D)?
Answer: Its inhibition at 10 µM is > 50%.

Question: What about the GI50 (UACC-257) of the same compound?
Answer: The GI50 was 2.34 µM.

Question: And the TGI (UACC-257)?
Answer: The TGI was 5.62 µM.

Question: And the CC50 (UACC-257; [14])?
Answer: The CC50 was 18.2 µM.

Question: What about the inhibition at 10 µM (HCT-116 [12]) of the same compound?
Answer: Its inhibition at 10 µM is > 50%.

Question: And the GI50 (A498)?
Answer: The GI50 was 11.5 µM.

Question: And the TGI (A498)?
Answer: Its TGI is 24 µM.

Question: And the CC50 (A498; [14])?
Answer: The CC50 was 49 µM.

Question: And the inhibition at 10 µM (SNB-19 [13])?
Answer: Its inhibition at 10 µM is > 50%.

Question: What about the GI50 (UACC-62) of the same compound?
Answer: The GI50 was 2.04 µM.

Question: What about the TGI (UACC-62) of the same compound?
Answer: Its TGI is 4.68 µM.

Question: And the CC50 (UACC-62; [14])?
Answer: Its CC50 is 12 µM.

Question: What about the inhibition at 10 µM (PC-3) of the same compound?
Answer: Its inhibition at 10 µM is > 50%.

Question: What about the GI50 (DU-145) of the same compound?
Answer: Its GI50 is 1.86 µM.

Question: What about the TGI (DU-145) of the same compound?
Answer: Its TGI is 3.24 µM.

Question: And the CC50 (DU-145; [14])?
Answer: The CC50 was 5.75 µM.
